The source of these data is patent US20260373148A1, “5-FLUOROURACIL DERIVATIVE AND ANTI-TUMOR USE THEREOF” (SICHUAN UNIVERSITY, priority 2023, published 2026).

Each structure is given as a SMILES string. Entries after “also recorded” stand apart in the source; their conditions may differ.

Assay [1] deals with squamous cell carcinoma cells HN30, HN12, Cal-27, and HSC-3. The assay can be described thus: Inhibitory effect of compounds on the proliferation of squamous cell carcinoma cells HN30, HN12, Cal-27, HSC-3 (CCK-8 assay). The assay is classed as cell-based. The following applies: in words, 48 hours; for inhibitory effect on the proliferation of tumor cells: HN30, HN12, Cal-27, HSC-3, 0, 1.25, 2.5, 5, 10 μM. The protocol: (§1) Squamous cell carcinoma cell lines: HN30, HN12, Cal-27, HSC-3.
(§2) Test compounds: Compounds 3a, 3b, 3c; Compound 1 (i.e., 5-fluorouracil).
(§3) The experimental procedure was as follows: All four tumor cell lines were cultured in a standardized incubator at 37 °C with 5% CO2. Cells in logarithmic growth phase were digested, counted, and seeded onto 96-well plates at 3000 cells/well. They were then cultured overnight in the incubator. The test compounds were prepared into a stock solution with DMSO at a concentration of 10 mM, and were diluted sequentially (0, 1.25, 2.5, 5, 10 μM) before treating the cells. The control group was treated with the highest concentration of DMSO. The cells were cultured for additional 48 hours in the incubator, and the effect of each compound on the proliferation of the four tumor cell lines was assessed using CCK-8 assay. Meanwhile, the experimental results of compound 3a and compound 1 were analyzed to obtain their IC50 values, and the effects of both compounds on tumor cell proliferation were compared.

For the next assay, the system named is OSCC cells. The following applies: in words; Heilongjiang Medicine and Pharmacy, February 2009; cited from earlier work.
Another assay concerns HN30 cells. The assay can be described thus: Inhibition of proliferation of HN30 squamous cell carcinoma cells (CCK-8 assay). The following applies: 48 hours, 0, 1.25, 2.5, 5, 10 μM, read-out: IC50 values against HN30 cells. The format is cell-based. The protocol: as §1, §2, §3
In general terms: Tetrazolium dyes change colour on reduction, which living cells bring about.

The subject of a further assay is Cal27 cells. The assay can be described thus: Inhibition of proliferation of Cal27 squamous cell carcinoma cells (CCK-8 assay). The format is cell-based. The following applies: Homo sapiens, CAL-27, 48 hours, 0, 1.25, 2.5, 5, 10 μM, read-out: IC50 values against Cal27 cells. The method, then:
as §1, §2, §3

Consider `O=C(CCn1cc(F)c(=O)[nH]c1=O)Nc1ccc(C23CC4CC(CC(C4)C2)C3)cc1` [Compound 3b], for which the “inhibitory effect on the proliferation of tumor cells” value (“inhibitory effect” for short) in assay [1] is reported as “did not show significant improvement”.

For the compound `O=C(CCn1c(=O)[nH]cc(F)c1=O)Nc1ccc(C23CC4CC(CC(C4)C2)C3)cc1` [Compound 3c], the “inhibitory effect” value in assay [1] is on record as “did not show significant improvement”.

The IC50 is the point on the concentration scale where inhibition reaches its midpoint. As to `O=c1[nH]cc(F)c(=O)[nH]1` [Compound 1, 5-fluorouracil], in the assay on OSCC cells, the “induction of apoptosis in OSCC cells” value is “can induce apoptosis in OSCC cells”. Further, the IC50 in the assay with HN30 cells is 21.7 µM; with Cal27 cells it was 22.8 µM. Besides, the “inhibitory effect” value in assay [1] is listed as “higher anti-tumor activity in a higher concentration range”.

On to `O=C(CCn1cc(F)c(=O)n(CCC(=O)Nc2ccc(C34CC5CC(CC(C5)C3)C4)cc2)c1=O)Nc1ccc(C23CC4CC(CC(C4)C2)C3)cc1` [Compound 3a], for which the concentration for half-maximal inhibition (IC50) was 7.09 µM in the assay with HN30 cells and 6.54 µM in the assay on Cal27 cells. In assay [1], the “inhibitory effect” value is “significantly better inhibitory effect than 5-fluorouracil; also recorded: significantly higher than that of compounds 1, 3b, and 3c; also recorded: significantly better than that of 5-fluorouracil”. The “IC50 value compared with compound 1” value in assay [1] (compound 3a versus compound 1, FIGS. 2 and 3 (HN30 and Cal27)) is given as “significantly lower than that of compound 1”.
